We go through four compounds from US4755523A, “Abietamide derivatives” (Nippon Shinyaku Co., Ltd., priority 1986, dated 1988).

For experiment [1], the system named is cholesterol loaded rats (serum total cholesterol). As to the kind of experiment: Effect in cholesterol loaded rats (HCD test), serum total cholesterol increase-inhibiting rate. Type of experiment: in vivo, Male Wister strain rats. The note with it: high-cholesterol food containing 0.03% of test compound, 3 days, serum TC, ** significant at 1% level. As to the method:
Test method: Male Wister strain rats of 4 weeks age (six rats per group) were used. They were fed with a high-cholesterol food containing 0.03% of the compound to be tested. After 3 days' feeding, they were fasted overnight, blood was collected therefrom, and the total cholesterol level (TC) in serum was measured. A group fed with a high cholesterol food containing no test compound and groups fed with normal synthetic food were called control group and normal groups, respectively. The serum TC increase-inhibiting rate (%) of the test compound was calculated by the following expression: [formula]

Experiment [2] deals with Triton-induced hyperlipemic mice (serum total cholesterol). As to the kind of experiment: Effect in Triton-induced hyperlipemic mice (Triton test), inhibiting rate against serum total cholesterol increase. As to conditions: Triton WR-1339 500 mg/kg i.v., test compound 300 mg/kg oral, serum TC after 24 hours, ** significant at 1% level. In kind it is in vivo, Male ICR-strain mice. How it is done:
Test method: Male ICR-strain mice of 9 weeks age (6 to 9 mice per group) were used. A solution of Triton WR-1339 in physiological saline solution was injected from tail vein at the dose of 500 mg/kg whereupon hyperlipemia was induced. Physiological saline solution was injected to normal group intravenously. Immediately thereafter, 300 mg/kg of the test compound suspended in 0.5% methylcellulose (MC) was given orally. The group given with 0.5% MC solution was called a control group. After fasting for 24 hours, head was cut, blood was taken, and the TC value of the resulting serum was measured. The inhibiting rate (%) against serum TC increase of the test compound was calculated by the following expression: [formula]

Experiment [3] has as its system absorption of extrinsic cholesterol from the intestinal tract. As to conditions: Japanese Laid Open Application Sho-51/026864; cited from earlier work.
Experiment [4] concerns biosynthesis of cholesterol. The note with it: Japanese Laid Open Application Sho-51/026864; cited from earlier work.

In the case of `CC(C)C1CCC2=C(CCC3C(C)(C(=O)Nc4ccnn4-c4ccccc4)CCCC23C)C1` (stereo not shown) [Example 1, N-(1-phenylpyrazol-5-yl)-Δ^8-dihydroabietamide], the “Inhibitory Rate for Cholesterol Increase (HCD Test)” value in experiment [1] worked out at 115%. The “Inhibitory Rate for Cholesterol Increase (Triton Test)” value in experiment [2] worked out at 32%.
As for `Cc1cccc(C)c1NC(=O)C1(C)CCCC2(C)C3=C(CCC12)CC(C(C)C)CC3` (stereo not shown) [N--(2,6-Dimethylphenyl)-Δ^8-dihydroabietamide, reference compound], in experiment [3], the “inhibition of absorption of extrinsic cholesterol from the intestinal tract” value is listed as “inhibit absorption of extrinsic cholesterol from the intestinal tract”. Also, the “Inhibitory Rate for Cholesterol Increase (HCD Test)” value in experiment [1] is recorded as 100%. The “inhibition of the biosynthesis of cholesterol” value in experiment [4] was “do not inhibit the biosynthesis of cholesterol”. For the same compound, the “Inhibitory Rate for Cholesterol Increase (Triton Test)” value in experiment [2] is given as -8%.
In the case of `CC(C)C1CCC2=C(CCC3C(C)(C(=O)Nc4nccs4)CCCC23C)C1` (stereo not shown) [Example 3, N-(Thiazol-2-yl)-Δ^8-dihydroabietamide], in experiment [1], the “Inhibitory Rate for Cholesterol Increase (HCD Test)” value turned out to be 47%. In addition, the “Inhibitory Rate for Cholesterol Increase (Triton Test)” value in experiment [2] was 75%.
In the same order, the values of `Cc1csc(NC(=O)C2(C)CCCC3(C)C4=C(CCC23)CC(C(C)C)CC4)n1` (stereo not shown) [Example 4, N-(4-Methylthiazol-2-yl)-Δ^8-dihydroabietamide] are 102% and 68%.
